We go through 21 compounds from patent EP4342530A1, “SORTILIN MODULATORS” (Insusense ApS, priority 2022, dated 2024).

“And” between values parts separate entries of the source, which are not always exact repeats. Equal entries are not always repeated.

As a reminder, the IC50 is the midpoint of a concentration-inhibition curve. As usually defined, the Kd is the concentration at which binding is half-saturated.

For one test, the target named is T1, h-Sortilin (Homo sapiens, UniProt Q99523).
T1 sequence (Q99523 78-831): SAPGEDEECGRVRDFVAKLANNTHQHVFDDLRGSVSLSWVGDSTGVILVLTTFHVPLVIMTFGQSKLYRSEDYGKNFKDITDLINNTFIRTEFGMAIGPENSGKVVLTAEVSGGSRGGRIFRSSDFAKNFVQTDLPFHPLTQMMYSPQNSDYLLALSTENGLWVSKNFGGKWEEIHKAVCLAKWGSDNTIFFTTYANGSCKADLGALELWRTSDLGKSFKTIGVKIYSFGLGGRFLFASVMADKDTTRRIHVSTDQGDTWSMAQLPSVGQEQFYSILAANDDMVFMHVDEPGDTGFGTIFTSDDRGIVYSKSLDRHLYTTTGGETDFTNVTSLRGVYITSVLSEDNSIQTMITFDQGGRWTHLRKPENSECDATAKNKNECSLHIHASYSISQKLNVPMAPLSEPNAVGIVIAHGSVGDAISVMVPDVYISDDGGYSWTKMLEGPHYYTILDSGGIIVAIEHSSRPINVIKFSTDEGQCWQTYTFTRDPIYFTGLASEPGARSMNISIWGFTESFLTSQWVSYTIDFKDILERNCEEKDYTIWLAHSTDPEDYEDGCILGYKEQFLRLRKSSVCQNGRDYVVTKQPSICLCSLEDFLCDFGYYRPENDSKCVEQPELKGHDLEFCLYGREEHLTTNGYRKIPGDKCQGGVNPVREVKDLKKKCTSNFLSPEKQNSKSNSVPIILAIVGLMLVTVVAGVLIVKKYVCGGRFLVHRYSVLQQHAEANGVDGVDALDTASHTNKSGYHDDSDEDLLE
Briefly: Neurotensin scintillation proximity assay (displacement of [3H]-neurotensin binding). The conditions noted are these: 150 nM 6his-Sortilin, 5 nM [3H]-Neurotensin; average of at least 2 determinations; read-out: IC50 [3H]Neurotensin SPA. The protocol: The exemplified compounds of the invention were tested in a Neurotensin (NTS) scintillation proximity assay (SPA). NTS, which is a 13 amino acid neuropeptide, is a sortilin ligand. The IC50 is a measure of the amount of the compound required to inhibit the binding of NTS to sortilin by 50%. The skilled person will recognise that the lower the IC50 value, the less of the compound needed to achieve the desired effect, and as a result, the chances of undesirable off-target effects are reduced.
Compound affinity was determined by measuring the displacement of [3H]-neurotensin binding to h-Sortilin in SPA format. Total volume of 40 µl in 50 mM HEPES pH 7.4 assay buffer containing 100 mM NaCl, 2.0 mM CaCl2, 0.1% BSA and 0.1% Tween-20. Compound pre-incubation for 30 minutes at room temperature with 150 nM of 6his-Sortilin before 5 nM [3H]-Neurotensin and Ni chelate imaging beads (Perkin Elmer) were added, after 6 hours the plate was read on a ViewLux with 360 s exposure time. Dose-response evaluation of compounds was performed with 8 concentrations of drugs (covering 3 decades). IC50 values were calculated by nonlinear regression using the sigmoid concentration-response (variable slope) using CDD Vault software. All values reported are average of at least 2 determinations.
A general note: In a scintillation proximity assay essentially only radioactivity close to the scintillant gives light.

A further test addresses T2, Sortilin (Homo sapiens, UniProt Q99523).
T2 construct: purchased Bio-Techne Ltd 3154-ST-050
T2 sequence (Q99523 78-755 limits assumed): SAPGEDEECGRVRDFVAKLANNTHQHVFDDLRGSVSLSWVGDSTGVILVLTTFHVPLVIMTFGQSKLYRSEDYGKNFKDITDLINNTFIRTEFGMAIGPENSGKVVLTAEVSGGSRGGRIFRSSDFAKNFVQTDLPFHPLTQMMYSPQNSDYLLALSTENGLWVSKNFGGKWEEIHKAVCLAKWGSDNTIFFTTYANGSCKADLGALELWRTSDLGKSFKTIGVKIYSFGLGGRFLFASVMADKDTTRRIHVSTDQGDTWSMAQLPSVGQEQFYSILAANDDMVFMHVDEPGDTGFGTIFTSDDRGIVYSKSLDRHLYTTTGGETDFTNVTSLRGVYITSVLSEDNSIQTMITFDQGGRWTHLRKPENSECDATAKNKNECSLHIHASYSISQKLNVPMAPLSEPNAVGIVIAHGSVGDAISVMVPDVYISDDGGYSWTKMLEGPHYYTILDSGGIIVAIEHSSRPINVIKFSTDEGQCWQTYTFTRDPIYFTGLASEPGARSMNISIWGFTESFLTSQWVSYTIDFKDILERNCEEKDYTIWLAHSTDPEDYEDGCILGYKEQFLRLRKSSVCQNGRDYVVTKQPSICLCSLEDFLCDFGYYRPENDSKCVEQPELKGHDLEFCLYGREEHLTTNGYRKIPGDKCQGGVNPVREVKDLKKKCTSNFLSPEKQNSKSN
Nature of the test: Creoptix (GCI) binding kinetics, human Sortilin. The conditions noted are these: Species Human, screened at 1 µM, 25 degrees Celsius. The protocol: Creoptix (GCI) method - using SEQ ID NO.4 (Murine sortillin)
A protein, bound to a surface, is bathed in a solution containing potential ligands giving rise to binding kinetics to generate Kon and Koff rates, as well as a Kd.
All buffers described were filtered using a 0.2µm filter (Product number: 10300461, Nalgene) and degassed for 15 minutes prior to use.
A flow cell temperature of 25 degrees Celsius was used throughout the experiment.
A 4PCH chip was conditioned across all flow cells using 0.2 X concentration running buffer (running buffer composition: 1XHBS-N, pH 7.4, 3.4 mM EDTA, 1% DMSO) using pre-set conditioning wizard (WAVE control software) injecting: 0.1 M borate, 1 M NaCl (pH 9) followed by three start-up injections of 0.2 X running buffer.
A buffer exchange was performed and 1x running buffer (1XHBS-N, pH 7.4, 3.4 mM EDTA, 1% DMSO) used during the immobilisation procedure: An initial injection of EDC/NHS (mixed in 1:1 ratio) was performed across all 4-flow cells to activate the surface for amine coupling of ligands.
Recombinant Sortilin aliquots were thawed quickly by hand and centrifuged at 13,300 rpm for 10 minutes. A 10 µg/ml protein solution was then made in pH 5.0 acetate and injected once for 20 minutes over flow-cells 2, 3 and 4 for human, human (flow cells 2 & 3), and mouse Sortilin respectively followed by a 60 second dissociation period.
A final 7-minute passivation injection of 50 mM tris was used across all flow cells.
A flow rate of 10 µl/min was used for all conditioning and immobilisation cycles.
Compounds were screened at 1 µM using the in-built 'intermediate binders' settings: 100 ul/min, 45 s baseline, 25 s association, 300 s dissociation, with blanks every 5th sample and a DMSO correction (1.5 % DMSO at the start and end of the experiment as well as every 20 cycles. An acquisition rate of 10 Hz was used throughout the experiment.
Compounds were screened at a final assay concentration of 1 µM and a final DMSO concentration was 1 %. To achieve this, compounds were diluted in DMSO from 10 mM stocks to 100 µM (100 x final assay concentration) then diluted 1:100 in running buffer which contained no DMSO to establish a final assay concentration of compound of 1 µM and a final DMSO concentration of 1 % [DMSO].
Compounds and DMSO were mixed by plate shaking at 1000 rpm for 60 seconds using a Bioshake instrument.
A flow rate of 100 µl/min was used throughout the experiment.
Data was evaluated using the RAPID kinetic analysis tool in the GCI WAVE_control software with data fitted using a standard 1:1 kinetic BioModel.

As to `CC(C)(C)CC[C@H](NCc1ccc2c(c1)CCOC2)C(=O)O` [Example 1, (S)-2-((isochroman-6-ylmethyl)amino)-5,5-dimethylhexanoic acid], the IC50 at h-Sortilin stood at 270 nM. The Kd on Sortilin (Form of Compound Free acid) worked out at 107 nM.
In the same order, the values of `CC(C)(C)CC[C@H](NCc1cnc2c(c1)COCC2)C(=O)O` [Example 2, (2S)-5,5-dimethyl-2-[({5H,7H,8H-pyrano[4,3-b]pyridin-3-yl}methyl)amino]hexanoic acid] are 350 nM and 172 nM.
As to `CC(C)(C)CC[C@H](NCc1ccc2c(c1)OCCC2)C(=O)O` [Example 5, (2S)-2-{[(3,4-dihydro-2H-1-benzopyran-7-yl)methyl]amino}-5,5-dimethylhexanoic acid], the 50% inhibitory concentration (IC50) on h-Sortilin was 310 nM. Binding at Sortilin (Form of Compound Free acid) was characterised by a dissociation constant (Kd) of 63.4 nM.
As to `CC(C)(C)CC[C@H](NCc1ccc2c(c1)CCC2)C(=O)O` [Example 6, (2S)-2-{[(2,3-dihydro-1H-inden-5-yl)methyl]amino}-5,5-dimethylhexanoic acid], at h-Sortilin, the half-inhibitory concentration (IC50) worked out at 210 nM. The compound further showed a Kd at Sortilin (Form of Compound Free acid) of 117 nM.
In the same order, the values of `CC(C)(C)CC[C@H](NCc1cnc2c(c1)CCCC2)C(=O)O` [Example 7, (S)-5,5-dimethyl-2-(((5,6,7,8-tetrahydroquinolin-3-yl)methyl)amino)hexanoic acid] are 140 nM and 264 nM.
In the same order, the values of `CC(C)(C)CC[C@H](NCc1cnc2c(c1)CCC2)C(=O)O` [Example 8, (2S)-2-[({5H,6H,7H-cyclopenta[b]pyridin-3-yl}methyl)amino]-5,5-dimethylhexanoic acid] are 500 nM and 191 nM.
As for `C[C@@H](N[C@@H](CCC(C)(C)C)C(=O)O)c1ccc2c(c1)CCCC2` [Example 11, (S)-5,5-dimethyl-2-(((R)-1-(5,6,7,8-tetrahydronaphthalen-2-yl)ethyl)amino)hexanoic acid], at h-Sortilin, the IC50 came to 120 nM. Moreover, the Kd on Sortilin (Form of Compound Free acid) came to 36.6 nM; on Sortilin (Form of Compound Mesylate salt) it was 40.7 nM.
As to `C[C@@H](N[C@@H](CCC(C)(C)C)C(=O)O)c1ccc2c(c1)CCC2` [Example 13], at h-Sortilin, the IC50 stood at 210 nM. Besides, the Kd at Sortilin (Form of Compound Mesylate salt) amounted to 57.5 nM.
Turning to `C[C@H](N[C@@H](CCC(C)(C)C)C(=O)O)c1ccc2c(c1)CCC2` [Example 14], the IC50 on h-Sortilin turned out to be 280 nM. Also, at Sortilin (Form of Compound Mesylate salt), the dissociation constant (Kd) was determined as 35.1 nM.
On to `CC(C)(C)CC[C@H](NCc1ccc2c(c1)NCCC2)C(=O)O` [Example 17, (2S)-5,5-dimethyl-2-{[(1,2,3,4-tetrahydroquinolin-7-yl)methyl]amino}hexanoic acid], for which the IC50 on h-Sortilin came out at 190 nM. The affinity at Sortilin (Form of Compound Free acid), expressed as Kd, was 97.3 nM.
Consider `CN1C(=O)COc2ccc(CN[C@@H](CCC(C)(C)C)C(=O)O)cc21` [Example 21, (2S)-5,5-dimethyl-2-{[(4-methyl-3-oxo-3,4-dihydro-2H-1,4-benzoxazin-6-yl)methyl]amino}hexanoic acid], for which the 50% inhibitory concentration (IC50) on h-Sortilin turned out to be 260 nM. At Sortilin (Form of Compound Free acid), this compound returned a Kd of 164 nM.
`Cn1c(=O)oc2cc(CN[C@@H](CCC(C)(C)C)C(=O)O)ccc21` [Example 22, (2S)-5,5-dimethyl-2-{[(3-methyl-2-oxo-2,3-dihydro-1,3-benzoxazol-6-yl)methyl]amino}hexanoic acid]: on h-Sortilin, the IC50 was determined as 470 nM. Binding on Sortilin (Form of Compound Free acid) was characterised by a dissociation constant (Kd) of 350 nM.
`CN1C(=O)COc2cc(CN[C@@H](CCC(C)(C)C)C(=O)O)ccc21` [Example 25, (2S)-5,5-dimethyl-2-{[(4-methyl-3-oxo-3,4-dihydro-2H-1,4-benzoxazin-7-yl)methyl]amino}hexanoic acid]: the IC50 on h-Sortilin worked out at 950 nM. In addition, the Kd at Sortilin (Form of Compound Free acid) was 563 nM and 158 nM.
As to `CN1C(=O)CCc2ccc(CN[C@@H](CCC(C)(C)C)C(=O)O)cc21` [Example 28, (2S)-5,5-dimethyl-2-{[(1-methyl-2-oxo-1,2,3,4-tetrahydroquinolin-7-yl)methyl]amino}hexanoic acid], the IC50 at h-Sortilin was 220 nM. For the same compound, the Kd at Sortilin (Form of Compound Free acid) is 317 nM.
For the compound `CC(C)(C)CC[C@H](N[C@@H](c1cnc2c(c1)CCCC2)C(F)(F)F)C(=O)O` [Example 33, (2S)-5,5-dimethyl-2-{[(1S)-2,2,2-trifluoro-1-(5,6,7,8-tetrahydroquinolin-3-yl)ethyl]amino}hexanoic acid], the IC50 at h-Sortilin was determined as 130 nM. Besides, binding at Sortilin (Form of Compound Free acid) was put at a Kd of 28 nM.
As for `CC(C)(C)CC[C@H](NCc1cccc(Oc2ccccc2)c1)C(=O)O` [Example 34], on h-Sortilin, the IC50 was determined as 820 nM. Also, the Kd at Sortilin (Form of Compound Free acid) was determined as 216 nM.
For `CC(C)(C)CC[C@H](NCc1ccc(Oc2ccccc2)nc1)C(=O)O` [Example 38, (2S)-5,5-dimethyl-2-{[(6-phenoxypyridin-3-yl)methyl]amino}hexanoic acid], the half-inhibitory concentration (IC50) at h-Sortilin amounted to 340 nM. The Kd on Sortilin (Form of Compound Mesylate salt) was 49.1 nM.
As to `C[C@@H](N[C@@H](CCC(C)(C)C)C(=O)O)c1ccc(Oc2ccccc2)nc1` [Example 43], on h-Sortilin, the IC50 came to 410 nM. This compound also gave a dissociation constant Kd at Sortilin (Form of Compound Free acid) of 68.3 nM.
Take `C[C@H](N[C@@H](CCC(C)(C)C)C(=O)O)c1ccc(Oc2ccccc2)nc1` [Example 44]: the IC50 at h-Sortilin amounted to 740 nM. The compound also gave a Kd on Sortilin (Form of Compound Free acid) of 127 nM.
For `CC(C)(C)CC[C@H](N[C@@H](c1ccc2c(c1)CCCC2)C(F)F)C(=O)O` [Example 45], on h-Sortilin, the IC50 is 120 nM. Further, the affinity at Sortilin (Form of Compound Free acid), expressed as Kd, was 43.9 nM.
`C[C@@H](N[C@@H](CCC(C)(C)C)C(=O)O)c1ccc2c(c1)N(C)CCC2` [Example 48] returned a Kd at Sortilin (Form of Compound Free acid) of 46.2 nM.
